Experimental data reported in ChEMBL document CHEMBL4017465 (Bioorg Med Chem Lett, 2017).

Assays:
CYP1A2 [1] = target: T1, CYP1A2 (Homo sapiens, UniProt P05177); assay: Inhibition of recombinant human CYP1A2 expressed in insect cells at 20 uM using EOMCC as substrate pretreated for 10 mins followed by substrate addition measured every minute for 15 mins in presence of NADP+ by fluorescence assay relative to control; conditions: probe EOMCC
T1 sequence (P05177 whole entry): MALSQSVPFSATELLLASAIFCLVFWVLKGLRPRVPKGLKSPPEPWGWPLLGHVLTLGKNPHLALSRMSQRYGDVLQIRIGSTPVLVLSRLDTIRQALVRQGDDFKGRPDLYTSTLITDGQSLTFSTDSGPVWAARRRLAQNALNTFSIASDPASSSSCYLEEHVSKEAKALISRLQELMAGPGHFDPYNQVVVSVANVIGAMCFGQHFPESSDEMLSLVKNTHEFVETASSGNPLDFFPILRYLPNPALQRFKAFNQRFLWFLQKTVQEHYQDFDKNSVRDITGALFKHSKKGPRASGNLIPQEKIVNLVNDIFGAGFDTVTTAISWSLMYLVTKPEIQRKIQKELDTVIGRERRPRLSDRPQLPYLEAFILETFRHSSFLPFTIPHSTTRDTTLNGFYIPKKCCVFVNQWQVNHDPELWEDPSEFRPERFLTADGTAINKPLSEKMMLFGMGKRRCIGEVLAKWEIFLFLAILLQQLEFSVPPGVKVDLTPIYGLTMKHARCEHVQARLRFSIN

CYP3A4 [2] = target: T2, CYP3A4 (Homo sapiens, UniProt P08684); assay: Inhibition of recombinant human CYP3A4 expressed in insect cells at 100 uM using DBOMF as substrate pretreated for 10 mins followed by substrate addition measured every minute for 15 mins in presence of NADP+ by fluorescence assay relative to control; type: ADME; conditions: probe DBOMF
CYP1A2 [3] = target: T1, CYP1A2; assay: Inhibition of recombinant human CYP1A2 expressed in insect cells at 10 uM using EOMCC as substrate pretreated for 10 mins followed by substrate addition measured every minute for 15 mins in presence of NADP+ by fluorescence assay relative to control; conditions: probe EOMCC
CYP1A2 [4] = target: T1, CYP1A2; assay: Inhibition of recombinant human CYP1A2 expressed in insect cells at 0.01 uM using EOMCC as substrate pretreated for 10 mins followed by substrate addition measured every minute for 15 mins in presence of NADP+ by fluorescence assay relative to control; conditions: probe EOMCC
Cytochrome P450 1A2 = target: T3, Cytochrome P450 1A2 (Homo sapiens, UniProt P05177); assay: Inhibition of recombinant human CYP1A2 expressed in insect cells using EOMCC as substrate pretreated for 10 mins followed by substrate addition measured every minute for 15 mins in presence of NADP+ by fluorescence assay; type: ADME
T3 sequence (P05177 whole entry): T1 sequence (P05177 whole entry)

CYP1A2 [5] = target: T1, CYP1A2; assay: Inhibition of recombinant human CYP1A2 expressed in insect cells at 1 uM using EOMCC as substrate pretreated for 10 mins followed by substrate addition measured every minute for 15 mins in presence of NADP+ by fluorescence assay relative to control; conditions: probe EOMCC
CYP1A2 [6] = target: T1, CYP1A2; assay: Inhibition of recombinant human CYP1A2 expressed in insect cells at <10 uM using EOMCC as substrate pretreated for 10 mins followed by substrate addition measured every minute for 15 mins in presence of NADP+ by fluorescence assay relative to control; type: ADME; conditions: probe EOMCC
Cytochrome P450 3A4 = Cytochrome P450 3A4 (Homo sapiens, UniProt P08684); assay: Inhibition of recombinant human CYP3A4 expressed in insect cells using DBOMF as substrate pretreated for 10 mins followed by substrate addition measured every minute for 15 mins in presence of NADP+ by fluorescence assay; type: ADME
CYP3A4 [7] = target: T2, CYP3A4; assay: Inhibition of recombinant human CYP3A4 expressed in insect cells at >= 1 uM using DBOMF as substrate pretreated for 10 mins followed by substrate addition measured every minute for 15 mins in presence of NADP+ by fluorescence assay relative to control; conditions: probe DBOMF
CYP1A2 [8] = target: T1, CYP1A2; assay: Inhibition of recombinant human CYP1A2 expressed in insect cells at >1 uM using EOMCC as substrate pretreated for 10 mins followed by substrate addition measured every minute for 15 mins in presence of NADP+ by fluorescence assay relative to control; type: ADME; conditions: probe EOMCC

T2 sequence (P08684 whole entry): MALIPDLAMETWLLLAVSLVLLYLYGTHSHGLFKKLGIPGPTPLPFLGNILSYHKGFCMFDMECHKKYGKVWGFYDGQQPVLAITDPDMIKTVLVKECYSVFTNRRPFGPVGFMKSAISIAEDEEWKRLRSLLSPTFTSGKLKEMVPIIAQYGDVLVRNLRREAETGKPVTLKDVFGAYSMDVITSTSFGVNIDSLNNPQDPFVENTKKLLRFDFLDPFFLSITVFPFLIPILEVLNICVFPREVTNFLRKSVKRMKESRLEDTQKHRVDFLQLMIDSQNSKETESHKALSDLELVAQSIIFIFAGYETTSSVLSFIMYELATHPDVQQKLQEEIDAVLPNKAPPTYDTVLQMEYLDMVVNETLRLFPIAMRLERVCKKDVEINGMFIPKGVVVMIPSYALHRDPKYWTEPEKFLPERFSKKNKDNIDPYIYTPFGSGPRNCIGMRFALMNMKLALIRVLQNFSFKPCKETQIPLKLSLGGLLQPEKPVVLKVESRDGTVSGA
Chain of Cytochrome P450 3A4 (P08684 whole entry): as above

Row | SMILES | inhibition at 0.25 h, 100 µM (CYP3A4 [2]) | IC50 (Cytochrome P450 1A2) | inhibition at 0.25 h (CYP1A2 [6]) | IC50 (Cytochrome P450 3A4) | other results
1 | COc1ccc(CCNc2c3c(nc4cc(Cl)ccc24)CCCC3)cc1OC | – | 22.3 µM | < 50% | – | –
2 | COc1ccc(CNc2c3c(nc4ccccc24)CCCC3)cc1OC | 90% | 33 µM | < 50% | 3.7 µM | –
3 | CC(=O)N1CCN(c2ccc(OCC3COC(Cn4ccnc4)(c4ccc(Cl)cc4Cl)O3)cc2)CC1 (configuration not stated) [KETOCONAZOLE] | – | – | – | – | inhibition at 0.25 h (CYP3A4 [7]): > 85%
4 | O=c1cc(-c2ccccc2)oc2c1ccc1ccccc12 [ALPHA-NAPHTHOFLAVONE] | – | – | – | – | inhibition at 0.25 h, 1 µM (CYP1A2 [5]): > 80%

Now from value to compound, other results behind:

Row | inhibition at 0.25 h, 100 µM (CYP3A4 [2]) | IC50 (Cytochrome P450 1A2) | inhibition at 0.25 h (CYP1A2 [6]) | IC50 (Cytochrome P450 3A4) | SMILES | other results
5 | 55% | 1.5 µM | – | – | Nc1c2c(nc3ccccc13)CCCC2 [TACRINE] | inhibition at 0.25 h, 20 µM (CYP1A2 [1]): 75%; inhibition at 0.25 h, 10 µM (CYP1A2 [3]): 75%; inhibition at 0.25 h, 0.01 µM (CYP1A2 [4]): 14%; inhibition at 0.25 h, 1 µM (CYP1A2 [5]): 45%
6 | 90% | 8.5 µM | < 50% | 13.8 µM | COc1ccc(CNc2c3c(nc4cc(Cl)ccc24)CCCC3)cc1OC | –
7 | 90% | 0.24 µM | – | 9.1 µM | Clc1ccc2c(NCc3ccccn3)c3c(nc2c1)CCCC3 | inhibition at 0.25 h (CYP1A2 [8]): > 80%
